Results: patent publication US12036270B2, “Method for immunomodulation of using aza-podophyllotoxin derivatives” (Sistema Universitario Ana G. Mendez, priority 2015, dated 2024)
Several values for one entry are separate records, joined by “and”; a condition that tells them apart may be missing. Equal values may be shown once.

System: mouse splenocytes
Assay: in vitro stimulation of mouse splenocytes/lymphocytes, cytokine release measured in supernatant by protein microarray chip
Type: cell-based
Conditions: for IL-6 produced: Example 1 and b94-b99; for GCSF levels: Example 2 and b94-b99; for cytokine milieu (TH1/TH2/TH17 bias): profile of AP-treated mouse splenocytes
Procedure: A total of 2×10^5 mouse splenocytes per well were cultured in a humidified atmosphere at 37° C. and 5% CO2 in round-bottomed 96-well culture plates for five days with the AP compounds […]. Concanavalin A ([…]) and culture media were used as positive and negative controls, respectively. Plates were centrifuged at 1,200 RPM for five minutes, and supernatants were collected. The resulting cytokine profile produced after lymphocyte stimulation was analyzed using a fluorescently-labeled protein microarray chip as indicated by the manufacturer (RayBiotech, Norcross, Ga., USA).
The immunomodulatory effect of the AP compounds was assessed by in vitro stimulation of mouse lymphocytes for five days.

[1] = mouse splenocytes, five days, listed as AP-102
[2] = mouse splenocytes, five days, listed as AP-103
[3] = mouse splenocytes, five days, listed as AP-312
[4] = mouse splenocytes, five days, listed as AP-311

| Structure (SMILES) | IL-12 (IL-12p70) induced (mouse splenocytes, five days) | IL-23 induced (mouse splenocytes, five days) | IL-6 produced (mouse splenocytes, five days) | GCSF levels (mouse splenocytes, five days) | G-CSF induced (summary / preliminary data) (mouse splenocytes, five days) [pg/mL] | IL-6 induced (summary / preliminary data) (mouse splenocytes, five days) [pg/mL] | cytokine milieu (TH1/TH2/TH17 bias) | IL-1b induced (mouse splenocytes, five days) [pg/mL] | IL-15 induced (mouse splenocytes, five days) | also measured |
| --- | --- | --- | --- | --- | --- | --- | --- | --- | --- | --- |
| O=C1OCC2=C1C(c1ccccc1)c1cc3c(cc1N2CCO)OCO3 (stereo not drawn) [AP104] | 22 pg/mL | 58 pg/mL and 58.48 pg/mL | 261 pg/mL and 260.85 pg/mL | 690 pg/mL and 690.39 pg/mL | 2071 | 782 | high TH2-type cytokines, but equally comparably low TH1 and TH2 | – | – | IFN-gamma induced (mouse splenocytes, five days): 104.58 pg/mL; IL-2p70 induced (so in the source) (mouse splenocytes, five days): 21.99 pg/mL; IL-10 induced (mouse splenocytes, five days): 14 pg/mL and 13.78 pg/mL |
| COc1ccc(C2C3=C(COC3=O)N(CCO)c3cc4c(cc32)OCO4)cc1OC (stereo not drawn) [AP102] | 29 pg/mL | – | 257 pg/mL | 736 pg/mL | 2208 | 772 | highest TH17 cytokine biased, followed by a close TH2 biased and a smaller TH1 cytokine milieu | – | – | IL-2 induced (mouse splenocytes, five days): 17 pg/mL; IL-17 induced (mouse splenocytes, five days): 294 pg/mL; IL-6 produced [1]: 257.35 pg/mL; GCSF levels [1]: 735.83 pg/mL; IL-2 induced [1]: 17.36 pg/mL; IL-12 (IL-12p70) induced [1]: 29.09 pg/mL |
| COc1cccc(C2C3=C(COC3=O)N(CCO)c3cc4c(cc32)OCO4)c1 (stereo not drawn) [AP103] | 21 pg/mL | – | 375 pg/mL | 858 pg/mL | 2575 | 1125 | high TH2-type cytokines, but equally comparably low TH1 and TH2 | 3.95 | – | IL-6 produced [2]: 535.06 pg/mL; GCSF levels [2]: 858.15 pg/mL; IL-12 (IL-12p70) induced [2]: 35.70 pg/mL |
| COc1cc(C2C3=C(COC3=O)N(CCO)c3cc4c(cc32)CCC4)cc(OC)c1O (stereo not drawn) [AP205] | 60 pg/mL and 60.14 pg/mL | 80 pg/mL and 79.96 pg/mL | 1445 pg/mL and 1444.71 pg/mL | 2336 pg/mL and 2336.49 pg/mL | 7166 | 4351 | high TH2-type cytokines, but equally comparably low TH1 and TH2 | 19.45 | 94 pg/mL and 94.04 pg/mL | IL-1a induced (mouse splenocytes, five days): 20 pg/mL and 20.29 pg/mL; IL-9 induced (mouse splenocytes, five days): 30 pg/mL and 30.45 pg/mL |
| COc1cccc(C2C3=C(COC3=O)N(CCO)c3cc4c(cc32)OCCO4)c1OC (stereo not drawn) [AP312] | 13 pg/mL | – | 270 pg/mL | – | – | 810 | strong TH2 cytokine milieu, followed by a TH17, and a smaller TH1 cytokine profile | 11.89 | – | IL-6 produced [3]: 269.89 pg/mL; IL-12 (IL-12p70) induced [3]: 27.89 pg/mL |
| COc1ccc(C2C3=C(COC3=O)N(CCO)c3cc4c(cc32)OCCO4)c(OC)c1OC (stereo not drawn) [AP311] | – | 27 pg/mL | 184 pg/mL | – | – | 551 | strong TH2 cytokine milieu, followed by a TH17, and a smaller TH1 cytokine profile | – | 56 pg/mL | IL-6 produced [4]: 183.76 pg/mL; IL-23 induced [4]: 26.66 pg/mL |
